Measured values taken from patent US3930838A, “S-benzyl-N,N-disec-butylthiocarbamate and its use as a rice field herbicide and a rice growth stimulant” (priority 1970, dated 1976).

Key:
rice [1] = test: Comparative selectivity test on rice in submerged culture, air-conditioned atmosphere (Example 7); type: in vivo; settings: for Main root, average value per plant / Shoot, average value per plant / Sprouted plants: 24 days
Method: (§1) Into a set of cylindrical pots having a 200 cm^2 internal surface, sieved rice field earth in a quantity of 1 kg. per pot was introduced. After leveling and wetting with 200 cc. of water, the earth surface of the pots was uniformly sprayed with hydroacetone solutions containing, respectively, 0, 0.2, 0.3, and 0.4% active product (a.p.). 4 Ml. of the solution were sprayed onto each pot, so that the amount of active product in a set of four pots was 0, 4, 6, and 8 kg./ha., respectively. Immediately after spraying, each pot was filled with water to a level of 7 cm. over the soil surface. Thereafter, the sowing was carried out at the rate of 15 pre-germinated rice seeds per pot. Three repetitions were performed for each treatment. The pots were kept in an air-conditioned atmosphere with a daily temperature variation between 10° and 25°C and a 14 hour per day light period. After 24 days, the percentage of sprouted plants and the length of the shoot were recorded.

rice [2] = test: Open field test on rice, biometric controls (Example 10); type: in vivo, rice cv. RIBE; settings: 36 days
Method: (§2) In the province of Novara, Italy, a test was performed outdoors in clay soil. For each treatment, a 600 m^2 plot provided with independent water feed was prepared. After soil working and leveling, the treatment was effected on Apr. 23, 1970, using formulations in emulsifiable oils of M3432 and of molinate, sprayed by means of mechanical devices. Only the plot treated with molinate was harrowed just after treatment in order to incorporate the product and to avoid any losses of same due to volatilization. Immediately afterwards, the plots were flooded to a water level of 10-12 cm.
(§3) Pre-germinated cv. RIBE rice was mechanically sowed broadcast on Apr. 25, 1970.
36 Days after the treatment, 50 rice plants were taken at random from each plot and subjected to biometric controls.

Rice plants = test: Open field test on rice, periodical checks of the plots (Example 10); type: in vivo, rice cv. RIBE; settings: two months
Method: as §2, §3
Periodical checks were carried out on the four plots. […]

Dactylis glomerata = test: Weeding activity in screening conditions (Example 12); type: in vivo; settings: 25 days
From the text: (§4) Two sets of small square tanks having 11 cm. sides, filled with field earth admixed with 30% of sand, were sowed at a depth of 0.5-1 cm. with the following grass species: Echinocloa crus galli, Setaria italica, Alopecurus myosiuroides, Lolium italicum, Digitaria sanguinalis, Avena fatua, Agrostis segetum, and Dactylis glomerata. After sowing, the earth surface of the tanks was uniformly sprayed with 2.4 cc./tank of hydroacetone solutions containing, respectively, 0, 0.05, 0.10, 0.20 and 0.30% of M3432 and of molinate, respectively, in order to obtain doses thereof corresponding to 0, 1, 2, 4, and 6 kg./ha., respectively.
(§5) Only one set of small tanks was covered with a 1 cm. layer of earth just after the treatment. All of the tanks were kept in an air-conditioned chamber identical with that described in Example 7, and were watered every day. 25 days after the treatment, the final results were examined, attributing to each treatment the following scale of values: […]

Echinocloa crus galli = test: as above; type: in vivo; settings: 25 days
From the text: as §4, §5

Setaria italica = test: as above; type: in vivo; settings: 25 days
From the text: as §4, §5

Echinocloa spp. [3] = test: Pre-emergence activity on Echinocloa in flooded cultures, pots (Example 13); type: in vivo
Method: as §1, with “After 24 days, the percentage of sprouted plants and the length of the shoot were recorded.” left out
The same method described in Example 7 was adopted, the only variations being the doses (0, 0.5, 1, 2 and 4 kg./ha.). the type of formulation and the sowing of Echinocloa spp. (25 slightly pre-germinated seeds per pot) instead of rice.

Alisma sp. = test: Outdoor infestation degree in rice plots (Example 15); type: in vivo; settings: 36 days
Method: as §2
(§6) A clear confirmation of the efficiency of M3432 towards Echinocloa spp. was obtained outdoors, where the test was carried out under conditions which are characteristic of Italian rice growing. The experimental conditions are described in Example 10.

Echinocloa spp. [4] = test: as above; type: in vivo; settings: for Infestation degree, plants per 10 square meters: 2 months
Method: as §2, §6

Scirpus sp. = test: as above; type: in vivo; settings: 36 days
Method: as §2, §6

[5] = Treated surface covered with 1 cm earth layer, 2 kg./ha.
[6] = Treated surface covered with 1 cm earth layer, 4 kg./ha.
[7] = Treated surface covered with 1 cm earth layer, 6 kg./ha.
[8] = Test No. 1, hydroacetone solution, 2 kg./ha., 22 days
[9] = Test No. 1, hydroacetone solution, 4 kg./ha., 22 days
[10] = Test No. 2, hydroacetone solution, 0.5 kg./ha., 21 days
[11] = Test No. 2, hydroacetone solution, 1 kg./ha., 21 days
[12] = Test No. 2, hydroacetone solution, 2 kg./ha., 21 days
[13] = Test No. 3, 50% emulsifiable oil, 2 kg./ha., 27 days
[14] = Test No. 3, 50% emulsifiable oil, 4 kg./ha., 27 days
[15] = Test No. 3, hydroacetone solution, 2 kg./ha., 27 days
[16] = Test No. 3, hydroacetone solution, 4 kg./ha., 27 days

CCC(C)N(C(=O)SCc1ccccc1)C(C)CC (stereo not shown) [M3432, S-benzyl-N,N-disec.butylthiocarbamate]
Main root, average value per plant (rice [1]; 4 kg./ha.): 8.3 cm.
Shoot, average value per plant (rice [1]; 4 kg./ha.): 17.8 cm.
Sprouted plants (rice [1]; 4 kg./ha.): 60.0%
Main root, average value per plant (rice [1]; 6 kg./ha.): 10.4 cm.
Shoot, average value per plant (rice [1]; 6 kg./ha.): 21.1 cm.
Sprouted plants (rice [1]; 6 kg./ha.): 53.3%
Main root, average value per plant (rice [1]; 8 kg./ha.): 10.1 cm.
Shoot, average value per plant (rice [1]; 8 kg./ha.): 23.9 cm.
Sprouted plants (rice [1]; 8 kg./ha.): 77.7%
Main root (rice [2]; 4 kg./ha.): 9.29 cm.
Roots, average weight per plant on dry basis (rice [2]; 4 kg./ha.): 2.431 g
Secondary roots (rice [2]; 4 kg./ha.): 9.64 no.
Shoot (rice [2]; 4 kg./ha.): 29.22 cm.
Shoot, average weight per plant on dry basis (rice [2]; 4 kg./ha.): 4.073 g
Total, average weight per plant on dry basis (rice [2]; 4 kg./ha.): 6.504 g
Main root (rice [2]; 6 kg./ha.): 10.19 cm.
Roots, average weight per plant on dry basis (rice [2]; 6 kg./ha.): 3.123 g
Secondary roots (rice [2]; 6 kg./ha.): 10.42 no.
Shoot (rice [2]; 6 kg./ha.): 30.17 cm.
Shoot, average weight per plant on dry basis (rice [2]; 6 kg./ha.): 4.209 g
Total, average weight per plant on dry basis (rice [2]; 6 kg./ha.): 7.341 g
Average height (Rice plants; 4 kg./ha.): about 60 cm.
Average height (Rice plants; 6 kg./ha.): about 60 cm.
Weeding activity (Dactylis glomerata; Surface, 1 kg./ha.): 3/4
Weeding activity (Dactylis glomerata; Surface, 2 kg./ha.): 4
Weeding activity (Dactylis glomerata; Surface, 4 kg./ha.): 4/3
Weeding activity (Dactylis glomerata; Surface, 6 kg./ha.): 4
Weeding activity (Dactylis glomerata; [5]): 4
Weeding activity (Dactylis glomerata; [6]): 4
Weeding activity (Dactylis glomerata; [7]): 4
Weeding activity (Echinocloa crus galli; Surface, 1 kg./ha.): 3
Weeding activity (Echinocloa crus galli; Surface, 2 kg./ha.): 3/4
Weeding activity (Echinocloa crus galli; Surface, 4 kg./ha.): 4/3
Weeding activity (Echinocloa crus galli; Surface, 6 kg./ha.): 4
Weeding activity (Echinocloa crus galli; [5]): 4/3
Weeding activity (Echinocloa crus galli; [6]): 4
Weeding activity (Echinocloa crus galli; [7]): 4
Weeding activity (Setaria italica; Surface, 1 kg./ha.): 3
Weeding activity (Setaria italica; Surface, 2 kg./ha.): 3
Weeding activity (Setaria italica; Surface, 4 kg./ha.): 4/3
Weeding activity (Setaria italica; Surface, 6 kg./ha.): 4/3
Weeding activity (Setaria italica; [5]): 3/4
Weeding activity (Setaria italica; [6]): 4/3
Weeding activity (Setaria italica; [7]): 4
Main root (Echinocloa spp. [3]; [8]): 0 cm.
Shoot (Echinocloa spp. [3]; [8]): 0 cm.
Stand (Sprouted plants) (Echinocloa spp. [3]; [8]): 0%
Main root (Echinocloa spp. [3]; [9]): 0 cm.
Shoot (Echinocloa spp. [3]; [9]): 0 cm.
Stand (Sprouted plants) (Echinocloa spp. [3]; [9]): 0%
Main root (Echinocloa spp. [3]; [10]): 3.28 cm.
Shoot (Echinocloa spp. [3]; [10]): 8.81 cm.
Stand (Echinocloa spp. [3]; [10]): 62%
Main root (Echinocloa spp. [3]; [11]): 0 cm.
Shoot (Echinocloa spp. [3]; [11]): 0 cm.
Stand (Echinocloa spp. [3]; [11]): 0%
Main root (Echinocloa spp. [3]; [12]): 0 cm.
Shoot (Echinocloa spp. [3]; [12]): 0 cm.
Stand (Echinocloa spp. [3]; [12]): 0%
Main root (Echinocloa spp. [3]; [13]): 0 cm.
Shoot (Echinocloa spp. [3]; [13]): 0 cm.
Stand (Echinocloa spp. [3]; [13]): 0%
Main root (Echinocloa spp. [3]; [14]): 0 cm.
Shoot (Echinocloa spp. [3]; [14]): 0 cm.
Stand (Echinocloa spp. [3]; [14]): 0%
Main root (Echinocloa spp. [3]; [15]): 0 cm.
Shoot (Echinocloa spp. [3]; [15]): 0 cm.
Stand (Echinocloa spp. [3]; [15]): 0%
Main root (Echinocloa spp. [3]; [16]): 0 cm.
Shoot (Echinocloa spp. [3]; [16]): 0 cm.
Stand (Echinocloa spp. [3]; [16]): 0%
Infestation degree (Alisma sp.; 4 kg./ha.): low (low = 0.5-1 plants per m^2)
Infestation degree (Alisma sp.; 6 kg./ha.): low (low = 0.5-1 plants per m^2)
Infestation degree, plants per 10 square meters (Echinocloa spp. [4]; 4 kg./ha.): 0.25 no.
Infestation degree, plants per 10 square meters (Echinocloa spp. [4]; 6 kg./ha.): 0.33 no.
Infestation degree (Scirpus sp.; 4 kg./ha.): low (low = 0.5-1 plants per m^2)
Infestation degree (Scirpus sp.; 6 kg./ha.): low (low = 0.5-1 plants per m^2)

CCSC(=O)N1CCCCCC1 [Molinate, ethyl-1-hexamethylene-imino-carbothiolate, reference compound]
Main root, average value per plant (rice [1]; 4 kg./ha.): 7.4 cm.
Shoot, average value per plant (rice [1]; 4 kg./ha.): 15.3 cm.
Sprouted plants (rice [1]; 4 kg./ha.): 42.3%
Main root, average value per plant (rice [1]; 6 kg./ha.): 3.9 cm.
Shoot, average value per plant (rice [1]; 6 kg./ha.): 8.2 cm.
Sprouted plants (rice [1]; 6 kg./ha.): 20.0%
Main root, average value per plant (rice [1]; 8 kg./ha.): 4.6 cm.
Shoot, average value per plant (rice [1]; 8 kg./ha.): 6.6 cm.
Sprouted plants (rice [1]; 8 kg./ha.): 11.0%
Margin of safety on rice (rice [1]; rice growth unfavorably affected even at 6 kg./ha.): narrow margin of safety
Main root (rice [2]; 4 kg./ha.): 7.67 cm.
Roots, average weight per plant on dry basis (rice [2]; 4 kg./ha.): 1.866 g
Secondary roots (rice [2]; 4 kg./ha.): 9.06 no.
Shoot (rice [2]; 4 kg./ha.): 25.72 cm.
Shoot, average weight per plant on dry basis (rice [2]; 4 kg./ha.): 3.257 g
Total, average weight per plant on dry basis (rice [2]; 4 kg./ha.): 5.123 g
Average height (Rice plants; 4 kg./ha.): 35-45 cm.
Rice plants appearance (Rice plants; 4 kg./ha.): normal
Stand (number of tillers per unit of area) (Rice plants; 4 kg./ha.): normal
Weeding activity (Dactylis glomerata; Surface, 2 kg./ha.): 1/2
Weeding activity (Dactylis glomerata; Surface, 4 kg./ha.): 1/2
Weeding activity (Dactylis glomerata; Surface, 6 kg./ha.): 3
Weeding activity (Dactylis glomerata; [5]): 3
Weeding activity (Dactylis glomerata; [6]): 4/3
Weeding activity (Dactylis glomerata; [7]): 4/3
Weeding activity (Echinocloa crus galli; Surface, 2 kg./ha.): 2
Weeding activity (Echinocloa crus galli; Surface, 4 kg./ha.): 1/2
Weeding activity (Echinocloa crus galli; Surface, 6 kg./ha.): 1/2
Weeding activity (Echinocloa crus galli; [5]): 3
Weeding activity (Echinocloa crus galli; [6]): 3
Weeding activity (Echinocloa crus galli; [7]): 3/4
Weeding activity (Setaria italica; Surface, 2 kg./ha.): 0/1
Weeding activity (Setaria italica; Surface, 4 kg./ha.): 0/1
Weeding activity (Setaria italica; Surface, 6 kg./ha.): 0/1
Weeding activity (Setaria italica; [5]): 3
Weeding activity (Setaria italica; [6]): 3
Weeding activity (Setaria italica; [7]): 3
Main root (Echinocloa spp. [3]; [9]): 0 cm.
Shoot (Echinocloa spp. [3]; [9]): 0 cm.
Stand (Sprouted plants) (Echinocloa spp. [3]; [9]): 0%
Infestation degree (Alisma sp.; 4 kg./ha.): moderate (moderate = 1 - 4 plants per m^2)
Infestation degree, plants per 10 square meters (Echinocloa spp. [4]; 4 kg./ha.): 1-2 no.
Infestation degree (Echinocloa spp. [4]; 4 kg./ha., 36 days): almost nil (almost nil = 0.1 plants per m^2)
Infestation degree (Scirpus sp.; 4 kg./ha.): moderate (moderate = 1 - 4 plants per m^2)
